From patent US20240101556A1, “COMPOUNDS AND COMPOSITIONS FOR TREATING CONDITIONS ASSOCIATED WITH STING ACTIVITY” (IFM Due, Inc., priority 2021, published 2024)

Biological target: T1, hSTING (Homo sapiens, UniProt Q86WV6, G230A/H232R/R293Q/R71H)
T1 construct: host or cells: THP1-Dual KO-IFNAR2 cells (human monocytic line)
Test: STING reporter assay (luciferase) in THP1-Dual KO-IFNAR2 cells stimulated with 2′3′cGAMP
Type: cell-based
Details: 2′3′cGAMP 15 μM with Lipofectamine 2000, 24 h, luciferase reporter activity, compounds 0.0017-100 μM
Protocol: STING pathway activation by the compounds described herein was measured using THP1-Dual™ cells (KO-IFNAR2).
THP1-Dual™ KO-IFNAR2 Cells (obtained from invivogen) were maintained in RPMI, 10% FCS, 5 ml P/S, 2 mM L-glut, 10 mM Hepes, and 1 mM sodium pyruvate. Compounds were spotted in empty 384 well tissue culture plates (Greiner 781182) by Echo for a final concentration of 0.0017-100 μM. Cells were plated into the TC plates at 40 μL per well, 2×10E6 cells/mL. For activation with STING ligand, 2′3′cGAMP (MW 718.38, obtained from Invivogen), was prepared in Optimem media.
The following solutions were prepared for each 1×384 plate: • Solution A: 2 mL Optimem with one of the following stimuli: • 60 μL of 10 mM 2′3′cGAMP→150 μM stock • Solution B: 2 mL Optimem with 60 μL Lipofectamine 2000→Incubate 5 min at RT
2 mL of solution A and 2 m1 Solution B was mixed and incubated for 20 min at room temperature (RT). 20 μL of transfection solution (A+B) was added on top of the plated cells, with a final 2′3′cGAMP concentration of 15 μM. The plates were then centrifuged immediately at 340 g for 1 minute, after which they were incubated at 37° C., 5% CO2, >98% humidity for 24 h. Luciferase reporter activity was then measured. EC50 values were calculated by using standard methods known in the art.
Luciferase reporter assay: 10 μL of supernatant from the assay was transferred to white 384-plate with flat bottom and squared wells. One pouch of QUANTI-Luc™ Plus was dissolved in 25 mL of water. 100 μL of QLC Stabilizer per 25 mL of QUANTI-Luc™ Plus solution was added. 50 μL of QUANTI-Luc™ Plus/QLC solution per well was then added. Luminescence was measured on a Platereader (e.g., Spectramax I3X (Molecular Devices GF3637001)).
Luciferase reporter activity was then measured. EC50 values were calculated by using standard methods known in the art.

T1 sequence (Q86WV6 whole entry R71H/G230A/H232R/R293Q): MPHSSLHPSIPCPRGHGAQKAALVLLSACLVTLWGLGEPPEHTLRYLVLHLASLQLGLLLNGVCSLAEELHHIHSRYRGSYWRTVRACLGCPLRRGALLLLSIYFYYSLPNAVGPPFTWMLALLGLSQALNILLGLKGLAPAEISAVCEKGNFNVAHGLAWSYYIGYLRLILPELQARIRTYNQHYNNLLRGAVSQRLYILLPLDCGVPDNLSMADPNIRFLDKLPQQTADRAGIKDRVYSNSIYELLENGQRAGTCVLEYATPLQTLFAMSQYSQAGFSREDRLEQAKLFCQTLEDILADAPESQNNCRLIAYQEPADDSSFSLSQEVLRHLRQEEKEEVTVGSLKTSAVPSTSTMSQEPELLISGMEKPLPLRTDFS

O=C(Nc1ccc(C(F)(F)F)cc1)Nc1c[nH]c2ccc(N3CCN(Cc4cccnc4)CC3)nc12 [Compound 119, 3-(5-{4-[(pyridin-3-yl)methyl]piperazin-1-yl}-1H-pyrrolo[3,2-b]pyridin-3-yl)-1-[4-(trifluoromethyl)phenyl]urea]
EC50: 1 to 5 µM

O=C(Nc1ccc(C(F)(F)F)cc1)Nc1c[nH]c2ccc(N3CCN(C4CCC(F)(F)CC4)CC3)nc12 [Compound 116, 3-{5-[4-(4,4-difluorocyclohexyl)piperazin-1-yl]-1H-pyrrolo[3,2-b]pyridin-3-yl}-1-[4-(trifluoromethyl)phenyl]urea]
EC50: 5 to 100 µM

CCN1CCN(c2ccc3[nH]cc(NC(=O)Nc4ccc(C(F)(F)F)cc4)c3n2)CC1 [Compound 127, 1-(5-(4-ethylpiperazin-1-yl)-1H-pyrrolo[3,2-b]pyridin-3-yl)-3-(4-(trifluoromethyl)phenyl)urea]
EC50: 5 to 100 µM

O=C(Nc1ccc(C(F)(F)F)cc1)Nc1c[nH]c2ccc(N3CCN(Cc4ccccn4)CC3)nc12 [Compound 120, 3-(5-{4-[(pyridin-2-yl)methyl]piperazin-1-yl}-1H-pyrrolo[3,2-b]pyridin-3-yl)-1-[4-(trifluoromethyl)phenyl]urea]
EC50: 5 to 100 µM

CC(C)CN1CCN(c2ccc3[nH]cc(NC(=O)Nc4ccc(C(F)(F)F)cc4)c3n2)CC1 [Compound 124, 3-{5-[4-(2-methylpropyl)piperazin-1-yl]-1H-pyrrolo[3,2-b]pyridin-3-yl}-1-[4-(trifluoromethyl)phenyl]urea]
EC50: 5 to 100 µM

O=C(Nc1ccc(C(F)(F)F)cc1)Nc1c[nH]c2ccc(N3CCN(CC4CC4)CC3)nc12 [Compound 117, 3-{5-[4-(cyclopropylmethyl)piperazin-1-yl]-1H-pyrrolo[3,2-b]pyridin-3-yl}-1-[4-(trifluoromethyl)phenyl]urea]
EC50: 5 to 100 µM

CC(C)c1ccn(-c2ccc3[nH]cc(NC(=O)Nc4ccc(C(F)(F)F)cc4)c3n2)n1 [Compound 132, 1-(5-(3-isopropyl-1H-pyrazol-1-yl)-1H-pyrrolo[3,2-b]pyridin-3-yl)-3-(4-(trifluoromethyl)phenyl)urea]
EC50: 5 to 100 µM

CC(CC(F)(F)F)N1CCN(c2ccc3[nH]cc(NC(=O)Nc4ccc(C(F)(F)F)cc4)c3n2)CC1 (stereo not shown) [Compound 114, 3-{5-[4-(4,4,4-trifluorobutan-2-yl)piperazin-1-yl]-1H-pyrrolo[3,2-b]pyridin-3-yl}-1-[4-(trifluoromethyl)phenyl]urea]
EC50: 5 to 100 µM

O=C(Nc1ccc(C(F)(F)F)cc1)Nc1c[nH]c2ccc(N3CCN(C4CCC(C(F)(F)F)CC4)CC3)nc12 (stereo not shown) [Compound 115, 3-(5-{4-[4-(trifluoromethyl)cyclohexyl]piperazin-1-yl}-1H-pyrrolo[3,2-b]pyridin-3-yl)-1-[4-(trifluoromethyl)phenyl]urea]
EC50: 5 to 100 µM

O=C(Nc1ccc(C(F)(F)F)cc1)Nc1c[nH]c2ccc(N3CCN(CC(F)(F)F)CC3)nc12 [Compound 118, 1-(5-(4-(2,2,2-trifluoroethyl)piperazin-1-yl)-1H-pyrrolo[3,2-b]pyridin-3-yl)-3-(4-(trifluoromethyl)phenyl)urea]
EC50: 5 to 100 µM

CC(C)c1cnn(-c2ccc3[nH]cc(NC(=O)Nc4ccc(C(F)(F)F)cc4)c3n2)c1 [Compound 131, 1-(5-(4-isopropyl-1H-pyrazol-1-yl)-1H-pyrrolo[3,2-b]pyridin-3-yl)-3-(4-(trifluoromethyl)phenyl)urea]
EC50: 5 to 100 µM

COCCN1CCN(c2ccc3[nH]cc(NC(=O)Nc4ccc(C(F)(F)F)cc4)c3n2)CC1 [Compound 122, 3-{5-[4-(2-methoxyethyl)piperazin-1-yl]-1H-pyrrolo[3,2-b]pyridin-3-yl}-1-[4-(trifluoromethyl)phenyl]urea]
EC50: 5 to 100 µM

O=C(Nc1ccc(C(F)(F)F)cc1)Nc1c[nH]c2ccc(N3CCN(CCC(F)(F)F)CC3)nc12 [Compound 123, 1-[4-(trifluoromethyl)phenyl]-3-{5-[4-(3,3,3-trifluoropropyl)piperazin-1-yl]-1H-pyrrolo[3,2-b]pyridin-3-yl}urea]
EC50: 5 to 100 µM

CCN1CCN(c2ccc3[nH]cc(NC(=O)Nc4ccc(C(F)(F)F)c(Cl)c4)c3n2)CC1 [Compound 126, 1-(3-chloro-4-(trifluoromethyl)phenyl)-3-(5-(4-ethylpiperazin-1-yl)-1H-pyrrolo[3,2-b]pyridin-3-yl)urea]
EC50: 5 to 100 µM

CC(C)(C)OC(=O)N1CCN(c2ccc3[nH]cc(NC(=O)Nc4ccc(C(F)(F)F)cc4)c3n2)CC1 [Compound 128, tert-butyl 4-(3-(3-(4-(trifluoromethyl)phenyl)ureido)-1H-pyrrolo[3,2-b]pyridin-5-yl)piperazine-1-carboxylate]
EC50: 5 to 100 µM

O=C(Nc1ccc(C(F)(F)F)cc1)Nc1c[nH]c2ccc(N3CCN(c4ccccc4)CC3)nc12 [Compound 129, 1-(5-(4-phenylpiperazin-1-yl)-1H-pyrrolo[3,2-b]pyridin-3-yl)-3-(4-(trifluoromethyl)phenyl)urea]
EC50: 0.2 to 1 µM

CN1CCN(c2ccc3[nH]cc(NC(=O)Nc4ccc(C(F)(F)F)cc4)c3n2)CC1 [Compound 125, 1-(5-(4-methylpiperazin-1-yl)-1H-pyrrolo[3,2-b]pyridin-3-yl)-3-(4-(trifluoromethyl)phenyl)urea]
EC50: 5 to 100 µM

CC(C)OC1CCC(N2CCN(c3ccc4[nH]cc(NC(=O)Nc5ccc(C(F)(F)F)cc5)c4n3)CC2)CC1 (stereo not shown) [Compound 113, 3-(5-{4-[4-(propan-2-yloxy)cyclohexyl]piperazin-1-yl}-1H-pyrrolo[3,2-b]pyridin-3-yl)-1-[4-(trifluoromethyl)phenyl]urea]
EC50: 5 to 100 µM

O=C(Nc1ccc(C(F)(F)F)cc1)Nc1c[nH]c2ccc(N3CCN(Cc4ccccc4)CC3)nc12 [Compound 121, 3-[5-(4-benzylpiperazin-1-yl)-1H-pyrrolo[3,2-b]pyridin-3-yl]-1-[4-(trifluoromethyl)phenyl]urea]
EC50: 5 to 100 µM
